Reference: ChEMBL document CHEMBL2390830 (Eur J Med Chem, 2013)
pIC50, pKi: −log10 of the molar value. Where a name gives a salt, the structure may show the parent alone.

Tests used:
[1] = target: T1, 5-hydroxytryptamine receptor 2C (Homo sapiens, UniProt P28335); assay: Binding affinity to human 5-HT2C receptor by radioligand displacement assay
T1 sequence (P28335 whole entry): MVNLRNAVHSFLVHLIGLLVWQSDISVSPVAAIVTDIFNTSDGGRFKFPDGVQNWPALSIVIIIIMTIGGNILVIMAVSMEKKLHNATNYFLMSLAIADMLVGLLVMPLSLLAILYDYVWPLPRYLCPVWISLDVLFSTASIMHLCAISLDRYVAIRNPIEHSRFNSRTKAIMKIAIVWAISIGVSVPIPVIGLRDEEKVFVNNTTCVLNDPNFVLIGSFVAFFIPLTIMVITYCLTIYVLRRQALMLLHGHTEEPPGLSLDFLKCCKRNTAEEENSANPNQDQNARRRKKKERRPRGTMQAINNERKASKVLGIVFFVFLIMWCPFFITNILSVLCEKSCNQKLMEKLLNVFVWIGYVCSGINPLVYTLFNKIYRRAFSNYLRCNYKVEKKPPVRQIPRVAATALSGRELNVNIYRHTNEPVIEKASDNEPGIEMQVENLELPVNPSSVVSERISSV

[2] = target: T2, 5-hydroxytryptamine receptor 1A (Rattus norvegicus, UniProt P19327); assay: Displacement of [3H]8-OH-DPAT from 5-HT1A receptor in Wistar rat cerebral hippocampus membrane after 10 mins; format: tissue-based; settings: read-out: Ki(app)
T2 sequence (P19327 whole entry): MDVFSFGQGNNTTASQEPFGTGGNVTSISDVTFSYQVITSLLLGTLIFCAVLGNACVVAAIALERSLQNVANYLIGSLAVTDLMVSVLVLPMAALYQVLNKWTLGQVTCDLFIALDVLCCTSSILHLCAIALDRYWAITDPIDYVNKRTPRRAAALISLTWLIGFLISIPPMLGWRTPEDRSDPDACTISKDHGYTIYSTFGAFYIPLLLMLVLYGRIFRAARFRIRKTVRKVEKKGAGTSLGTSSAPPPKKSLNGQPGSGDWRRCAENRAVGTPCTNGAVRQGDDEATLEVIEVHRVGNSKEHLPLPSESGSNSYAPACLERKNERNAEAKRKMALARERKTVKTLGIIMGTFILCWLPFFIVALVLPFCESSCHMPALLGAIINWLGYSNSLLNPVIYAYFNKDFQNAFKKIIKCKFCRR

[3] = Binding affinity to peripheral BZD receptor (unknown origin) by radioligand displacement assay; set-up: species or system Homo sapiens
[4] = Binding affinity to GABA-gated chloride channel (unknown origin) by radioligand displacement assay; set-up: species or system Homo sapiens
[5] = Binding affinity to human PACAP receptor by radioligand displacement assay
[6] = Binding affinity to human PCP receptor by radioligand displacement assay
[7] = target: Voltage-gated L-type calcium channel (Homo sapiens, UniProt Q13936+Q13698+Q01668+O60840); assay: Binding affinity to L-Ca2+ channel verapamil site (unknown origin) by radioligand displacement assay
[8] = Binding affinity to somatostatin receptor (unknown origin) by radioligand displacement assay; set-up: species or system Homo sapiens
[9] = Binding affinity to P2Y receptor (unknown origin) by radioligand displacement assay; set-up: species or system Homo sapiens
[10] = Binding affinity to P2X receptor (unknown origin) by radioligand displacement assay; set-up: species or system Homo sapiens
[11] = Binding affinity to sodium channel site 2 (unknown origin) by radioligand displacement assay; set-up: species or system Homo sapiens
[12] = target: T3, Muscarinic acetylcholine receptor M5 (Homo sapiens, UniProt P08912); assay: Binding affinity to human muscarinic M5 receptor by radioligand displacement assay
T3 sequence (P08912 whole entry): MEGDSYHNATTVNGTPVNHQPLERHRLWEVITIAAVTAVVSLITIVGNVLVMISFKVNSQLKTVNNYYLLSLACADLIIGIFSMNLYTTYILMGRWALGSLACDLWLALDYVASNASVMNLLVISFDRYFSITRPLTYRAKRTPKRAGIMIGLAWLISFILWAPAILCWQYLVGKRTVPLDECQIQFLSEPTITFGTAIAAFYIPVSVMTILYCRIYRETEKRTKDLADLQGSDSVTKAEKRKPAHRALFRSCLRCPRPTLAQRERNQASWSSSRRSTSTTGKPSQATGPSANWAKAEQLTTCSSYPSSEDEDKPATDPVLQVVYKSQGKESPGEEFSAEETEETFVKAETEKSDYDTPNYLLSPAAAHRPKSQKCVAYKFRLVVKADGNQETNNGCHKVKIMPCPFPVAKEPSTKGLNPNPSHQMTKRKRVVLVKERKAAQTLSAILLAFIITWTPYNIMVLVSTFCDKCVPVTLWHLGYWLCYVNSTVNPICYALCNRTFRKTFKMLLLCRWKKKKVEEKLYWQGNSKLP

Structure (SMILES): COc1cc(OC)c(C(=O)CCCCN2CCC3(CC2)NC(=O)NC3=O)cc1NS(=O)(=O)c1ccc(C(F)(F)F)cc1 [RS-102,221]
- pIC50 [1]: 8.57
- pKi [1]: 9.04

Structure (SMILES): O=C1c2cc3ccccc3nc2CN1CCCCCN1CCN(c2cccc(Cl)c2Cl)CC1
- pKi [2]: 7.24

Structure (SMILES): CCC(C)N(C)C(=O)c1cc2ccccc2c(-c2ccccc2Cl)n1 (centres undefined) [PK-11195]
- pIC50 [3]: 9.00
- pKi [3]: 9.05

Structure (SMILES): C=C(C)[C@@H]1[C@H]2OC(=O)[C@@H]1[C@]1(O)C[C@H]3O[C@]34C(=O)O[C@H]2[C@]14C [PICROTOXININ]
- pIC50 [4]: 6.92
- pKi [4]: 7.02

Structure (SMILES): CC[C@H](C)[C@H](NC(=O)CNC(=O)[C@H](CC(=O)O)NC(=O)[C@H](CO)NC(=O)[C@@H](N)Cc1cnc[nH]1)C(=O)N[C@@H](Cc1ccccc1)C(=O)N[C@H](C(=O)N[C@@H](CC(=O)O)C(=O)N[C@@H](CO)C(=O)N[C@@H](Cc1ccc(O)cc1)C(=O)N[C@@H](CO)C(=O)N[C@@H](CCCNC(=N)N)C(=O)N[C@@H](Cc1ccc(O)cc1)C(=O)N[C@@H](CCCNC(=N)N)C(=O)N[C@@H](CCCCN)C(=O)N[C@@H](CCC(N)=O)C(=O)N[C@@H](CCSC)C(=O)N[C@@H](C)C(=O)N[C@H](C(=O)N[C@@H](CCCCN)C(=O)N[C@@H](CCCCN)C(=O)N[C@@H](Cc1ccc(O)cc1)C(=O)N[C@@H](CC(C)C)C(=O)N[C@@H](C)C(=O)N[C@@H](C)C(=O)N[C@H](C(=O)N[C@@H](CC(C)C)C(=O)NCC(=O)N[C@@H](CCCCN)C(=O)N[C@@H](CCCNC(=N)N)C(=O)N[C@@H](Cc1ccc(O)cc1)C(=O)N[C@@H](CCCCN)C(=O)N[C@@H](CCC(N)=O)C(=O)N[C@@H](CCCNC(=N)N)C(=O)N[C@H](C(=O)N[C@@H](CCCCN)C(=O)N[C@@H](CC(N)=O)C(=O)N[C@@H](CCCCN)C(N)=O)C(C)C)C(C)C)C(C)C)[C@@H](C)O
- pIC50 [5]: 10.24
- pKi [5]: 10.31

Structure (SMILES): C[C@]12N[C@H](Cc3ccccc31)c1ccccc12 [DIZOCILPINE MALEATE]
- pIC50 [6]: 8.37
- pKi [6]: 8.62

Structure (SMILES): COc1ccccc1N1CCN(CCCCN2Cc3c(Cl)nc4ccccc4c3C2=O)CC1
- pKi [2]: 7.77

Structure (SMILES): COc1ccc(CCN(C)CCCC(C#N)(c2cc(OC)c(OC)c(OC)c2)C(C)C)cc1OC (centres undefined) [GALLOPAMIL]
- IC50 [7]: 1.1 ×10⁻⁸ M
- Ki [7]: 5.4 ×10⁻⁹ M

Structure (SMILES): COc1ccccc1N1CCN(CCCN2Cc3nc4ccccc4cc3C2=O)CC1
- pKi [2]: 6.98

Structure (SMILES): COc1ccccc1N1CCN(CCCCCN2Cc3nc4ccccc4cc3C2=O)CC1
- pKi [2]: 7.70

Structure (SMILES): C[C@H](N)C(=O)NCC(=O)N[C@H]1CSSC[C@@H](C(=O)O)NC(=O)[C@H](CO)NC(=O)[C@H]([C@@H](C)O)NC(=O)[C@H](Cc2ccccc2)NC(=O)[C@H]([C@@H](C)O)NC(=O)[C@H](CCCCN)NC(=O)[C@H](Cc2c[nH]c3ccccc23)NC(=O)[C@H](Cc2ccccc2)NC(=O)[C@H](Cc2ccccc2)NC(=O)[C@H](CC(N)=O)NC(=O)[C@H](CCCCN)NC1=O [SOMATOSTATIN]
- pIC50 [8]: 9.48
- pKi [8]: 9.70

Structure (SMILES): COc1ccccc1N1CCN(CCCN2Cc3ccc4ccccc4c3C2=O)CC1
- pKi [2]: 7.34

Structure (SMILES): COc1ccccc1N1CCN(CCCCN2Cc3nc4ccccc4cc3C2=O)CC1
- pKi [2]: 7.82

Structure (SMILES): Nc1ncnc2c1ncn2[C@H]1C[C@H](O)[C@@H](COP(O)(=S)OP(=O)(O)OP(=O)(O)O)O1 (some centres undefined)
- pIC50 [9]: 7.35
- pKi [9]: 7.64

Structure (SMILES): O=C1c2c(ccc3ccccc23)CN1CCCCCN1CCN(c2cccc(Cl)c2Cl)CC1
- pKi [2]: 6.31

Structure (SMILES): O=C1c2cc3ccccc3nc2CN1CCCCN1CCN(c2cccc(Cl)c2Cl)CC1
- pKi [2]: 7.52

Structure (SMILES): COc1ccccc1N1CCN(CCCCN2Cc3ccc4ccccc4c3C2=O)CC1
- pKi [2]: 7.89

Structure (SMILES): Nc1ncnc2c1ncn2[C@@H]1O[C@H](COP(=O)(O)CP(=O)(O)OP(=O)(O)O)[C@@H](O)[C@H]1O [DIPHOSPHOMETHYLPHOSPHONIC ACID ADENOSYL ESTER]
- pIC50 [10]: 8.68
- pKi [10]: 9.01

Structure (SMILES): O=C1c2c(c(Cl)nc3ccccc23)CN1CCCCN1CCN(c2cccc(Cl)c2Cl)CC1
- pKi [2]: 7.51

Structure (SMILES): O=C1c2c(ccc3ccccc23)CN1CCCCN1CCN(c2cccc(Cl)c2Cl)CC1
- pKi [2]: 7.51

Structure (SMILES): COc1ccc(C(=O)O[C@H]2CC[C@@]3(C)[C@@H]4CC[C@H]5[C@]6(O)C[C@H](O)[C@@]7(O)[C@@H](CN8C[C@@H](C)CC[C@H]8[C@@]7(C)O)[C@]6(O)C[C@@]53O[C@]24O)cc1OC [VERATRIDINE]
- pIC50 [11]: 5.28
- pKi [11]: 5.33

Structure (SMILES): C[N+]1(C)CCC(OC(=O)C(c2ccccc2)c2ccccc2)CC1 [4-DAMP]
- pIC50 [12]: 9.35
- pKi [12]: 9.66

Structure (SMILES): O=C1c2c(c(Cl)nc3ccccc23)CN1CCCCCN1CCN(c2cccc(Cl)c2Cl)CC1
- pKi [2]: 6.06
